This is an account of results in patent publication US12319726B2, “Method for treating CD40-mediated diseases” (CASE WESTERN RESERVE UNIVERSITY, priority 2008, dated 2025).

For assay [1], the system named is human retinal endothelial cells. Put plainly: ICAM-1 upregulation in human retinal endothelial cells (flow cytometry). The class given is cell-based. The note with it: 1 μM, 24 h. The protocol: FIG. 18 illustrates graphs showing ri CD40-TRAF2,3 blocking peptide inhibits CD40-driven upregulation of ICAM-1. Human retinal endothelial cells were treated with ri control peptide (Ctr P) or ri CD40-TRAF2,3 blocking peptide (T2,3 BP; both at 1 μM) followed by stimulation with CD154 or TNF-α. Expression of ICAM-1 was assessed by flow cytometry at 24 h. Data shown represent Mean±SD. Results are representative of 2 independent experiments. **P<0.01.
Primary human retinal endothelial cells were obtained as described (9) and cultured in complete medium supplemented with endothelial cell growth supplement from bovine pituitary (15 μg/ml; Sigma Chemical, St Louis, MO) and insulin/transferrin/selenium (Sigma Chemical). Cell identity was confirmed by incorporation of acetylated low-density lipoprotein (>90%). Endothelial cells were used between passages 3 to 6. The human Müller cell line MIO M1 (gift from Dr. Gloria Limb; University College London, UK; >95% vimentin^+, CRALBP^+ and GFAP^−) was also used. Endothelial cells were incubated with multimeric human CD154 to induce CD40 stimulation (obtained from Dr. Richard Kornbluth, Multimeric Biotherapeutics Inc., La Jolla, CA) or with a non-functional CD154 mutant (T147N) as control.
Cells were incubated with anti-ICAM-1 mAb (eBiosciences). After fixation with 1% paraformaldehyde, cells were analyzed using an LSR II (Becton Dickinson). […]
On the technique in general: Flow cytometry measures light scatter and fluorescence of single cells or particles in a stream.

A further assay relates to retinas subjected to I/R. The assay is described as follows: Model of retinal ischemia/reperfusion (I/R), intravitreal peptide. The class given is in vivo, B6 mice. The protocol: FIGS. 20(A-C) illustrate images and graphs showing ri CD40-TRAF2,3 blocking peptide protects against loss of ganglion cells and leukocyte infiltration in retinas subjected to I/R. One eye from each B6 and CD40^−/− mouse was subjected to I/R. Contralateral non-ischemic eye was used as control. Eyes subjected to I/R in B6 mice were treated intravitreously with or without ri control peptide, ri CD40-TRAF2,3 blocking peptide (both 1 μg) 30 min prior to increase in IOP. Eyes were collected 2 d after I/R. A marked decrease in the number of ganglion cells is observed in ischemic eyes from B6 treated with ri control peptide or vehicle (original magnification ×400). […] Arrowhead plus asterix identifies a PMN magnified in the inset (original magnification ×600). Scale bar, 50 μm. Number of ganglion cells per mm. Number of infiltrating leukocytes in the inner retina and vitreous per section. GCL=Ganglion cell layer; IPL=Inner plexiform layer; INL=Inner nuclear layer. OPL=Outer plexiform layer; ONL=Outer nuclear layer. Data shown represent Mean±SEM (9 mice per group). *P<0.05; **P<0.01; […].
FIG. 21 illustrates graphs showing ri CD40-TRAF2,3 blocking peptide impairs upregulation of NOS2 and COX-2 in retinas subjected to I/R. One eye of each mouse was treated as above and subjected to I/R. Eyes were collected after 2 d. mRNA levels of NOS2 and COX-2 were assessed by quantitative real time PCR. One non-ischemic eye from a B6 mouse was given an arbitrary value of 1 and data are expressed as fold-increase compared to this animal. Data shown represent Mean±SEM (7-9 mice per group). ***P<0.001.
FIGS. 22(A-B) illustrate graphs and images showing ri CD40-TRAF2,3 blocking peptide impairs upregulation of ICAM-1 and KC/CXCL1 in retinal endothelial cells from retinas subjected to I/R. One eye of each mouse was subjected to I/R. Eyes were collected after 2 d. mRNA levels of ICAM-1 and KC/CXCL1 were assessed by quantitative real time PCR. One non-ischemic eye from a B6 mouse was given an arbitrary value of 1 and data are expressed as fold-increase compared to this animal. Data shown represent Mean±SEM (7-9 mice per group). ***P<0.001. Retinal sections were incubated with Tomato Lectin (labels endothelial cells) plus either anti-ICAM-1 or anti-KC/CXCL1 Ab. Original magnification ×600. GCL=Ganglion cell layer; IPL=Inner plexiform layer; INL=Inner nuclear layer. Scale bar, 10 μm. 6 mice/group.
FIG. 23 illustrates images showing ri CD40-TRAF2,3 blocking peptide impairs NOS2 and KC/CXCL1 upregulation in Müller cells from retinas subjected to I/R. Eyes from B6 mice were treated with control peptide or CD40-TRAF2,3 blocking peptide, subjected to I/R and collected after 2 d. Retinal sections were incubated with anti-Vimentin Ab (labels Müller cells) plus either anti-NOS2 or anti-KC/CXCL1 Ab. Protein expression at the level of Müller cells stalks. […]. Original magnification ×600. Scale bar, 10 μm. 6 mice/group.
FIGS. 24(A-D) illustrate images and graphs showing ri CD40-TRAF2,3 blocking peptide protects against loss of ganglion neurons and inflammation when administered after retinal I/R. One eye from each B6 mouse was subjected to I/R. Non-ischemic eyes were used as controls. Eyes that were subjected to I/R received either ri control peptide or ri CD40-TRAF2,3 blocking peptide 90 min after increase in IOP. Eyes were collected 2 d after I/R. Administration of the blocking peptide protects against ganglion cell loss and infiltration by leukocytes (arrowhead). Original magnification ×400. Scale bar, 50 μm. Number of ganglion cells per mm. Number of leukocytes in the inner retina and vitreous per section. mRNA levels of ICAM-1, KC/CXCL1, NOS2 and COX-2 were assessed by quantitative real time PCR as above. Data shown represent Mean±SEM (7-9 mice per group). **P<0.01; ***P<0.001. GCL=Ganglion cell layer; IPL=Inner plexiform layer; INL=Inner nuclear layer. […]

Setting [2] is: 1 μg intravitreal prior to I/R, 2 d, real time PCR.
[3] abbreviates: peptide administered 90 min post-retinal ischemia, 2 d, mRNA.
Setting [4] is: prior to I/R, 2 d, immunohistochemistry.

Where a SMILES comes first, the peptide text is derived from it. [ ]: non-standard residue; d: D form.

As to `CC(C)C[C@@H](NC(=O)[C@@H](Cc1c[nH]cn1)NC(=O)CNC(=O)[C@@H](Cc1ccc(O)cc1)NC(=O)CNC(=O)[C@@H](CCCNC(=N)N)NC(=O)[C@@H](CCCCN)NC(=O)[C@@H](CCCCN)NC(=O)[C@@H](CCCNC(=N)N)NC(=O)[C@@H](CCCNC(=N)N)NC(=O)[C@@H](CCC(N)=O)NC(=O)[C@@H](CCCNC(=N)N)NC(=O)[C@@H](CCCNC(=N)N)NC(=O)[C@H](N)CCCNC(=N)N)C(=O)N[C@@H](C(=O)N[C@H](CCC(=O)O)C(=O)N[C@H](CCC(N)=O)C(=O)N[C@@H](C(=O)N[C@H](Cc1c[nH]cn1)C(=O)N[C@H](C)C(=O)N[C@H](C)C(=O)N[C@@H](C(=O)N[C@H](CC(N)=O)C(=O)O)[C@H](C)O)C(C)C)[C@H](C)O` [ri CD40-TRAF2,3 blocking peptide, NH2-rrrqrrkkrgy ghlteqvhaatn-OH] (H-[dR][dR][dR][dQ][dR][dR][dK][dK][dR]G[dY]G[dH][dL][dT][dE][dQ][dV][dH][dA][dA][dT][dN]-OH), the “upregulation of ICAM-1 in response to CD154” value in assay [1] (CD154 stimulation, P<0.01) was “impaired upregulation of ICAM-1”. Further, the “TNF-α-induced upregulation of ICAM-1” value in assay [1] (TNF-α stimulation) is “no effect”. For the same molecule, in the assay on retinas subjected to I/R (setting [2]), the “COX-2 mRNA levels in retina” value is listed as “impaired upregulation”, the “ICAM-1 mRNA levels in retina” value is “significant reduction”, the “KC/CXCL1 mRNA levels in retina” value is “significant reduction” and the “NOS2 mRNA levels in retina” value was “impaired upregulation”. The “PMN infiltration in the inner retina and vitreous” value in the assay with retinas subjected to I/R (1 μg intravitreal prior to I/R, 2 d after I/R) is “diminished inflammatory infiltrate”. Further, the “loss of ganglion cells” value in the assay with retinas subjected to I/R (1 μg intravitreal prior to I/R, eyes collected 2 d after I/R) was “significant attenuation in the loss of ganglion cells”. The leukocyte recruitment result with retinas subjected to I/R (peptide administered 90 min post-retinal ischemia, 2 d) is reported as “protected against”. Further, in the assay with retinas subjected to I/R (setting [3]), the “upregulation of COX-2” value is “protected against”, the “upregulation of ICAM-1” value is “protected against”, the “upregulation of KC/CXCL1” value is “protected against” and the “upregulation of NOS2” value was “protected against”. Moreover, in the assay with retinas subjected to I/R (peptide administered 90 min post-retinal ischemia, eyes collected 2 d after I/R), the ganglion cell loss result is given as “protected against”. In the assay with retinas subjected to I/R (setting [4]), the “expression of ICAM-1 in retinal endothelial cells” value was “decreased expression”, the “expression of KC/CXCL1 in Müller cells” value is “impaired expression”, the “expression of KC/CXCL1 in retinal endothelial cells” value was “decreased expression” and the “expression of NOS2 in Müller cells” value is on record as “impaired expression”.
